Laboratory results published in US20190185544A1, “COMPOSITIONS AND METHODS OF MODULATING ABETA PROTEIN” (University of South Florida, priority 2016, published 2019).

Assays:
N-terminus of APP = assay: Co-immunoprecipitation and co-localisation with N-terminal APP in CHO/APPwt cells; format: binding, human; conditions: peptides 10 μM or apoE 10 μg/mL, 2 h; IP with 6H3B5 or pN-APP
Procedure: Total secreted APP (t-sAPP) and full-length APP (f-APP) in total (inputs), immunoprecipitates and immunodepleted media and lysates were determined by WB using 22C11 or anti-C-terminal APP751/70 antibody (pC-APP), respectively (FIG. 20A left panels and FIG. 20B, top panels). Alternatively, conditioned media and cell lysates were IP with anti-N-terminal APP41/66 antibody (pN-APP) and apoE, or 6KApoEp and ApoEp, was determined using anti-human apoE antibody (ApoE1H4; FIG. 20A, right panels) or 6H3B5, respectively (FIG. 20B, bottom panels). In addition, CHO/APPwt cells were plated at 8 well-chambers at 1×10^5/well for 24 h, treated with 6K, ApoEp or 6KApoEp at 10 μM for 2 h, fixed in 4% paraformaldehyde and stained with 6H3B5 and pN-APP antibodies (FIG. 20C). Alexa Fluor 488 goat anti-mouse IgG (green) was used to detect ApoEp and 6KApoEp, while Alexa Fluor 594 donkey anti-rabbit IgG (red) was used to detect N-terminal APP. DAPI co-staining was done to show nuclear DNA. Homogenates prepared from three TgAPPwt mice (2 female/1 male), two AD patients (AD1[…], AD2[…]) and two normal age-matched control cortices (Ctrl1[…], Ctrl2[…]) were also IP with 6H3B5 or pN-APP and t-APP and apoE were determined using 6E10 and mApoE, respectively (FIGS. 20D-20E).
Total secreted APP in conditioned media and full length APP in cell lysates were then determined by WB using anti-N-terminal (22C11) and anti-C-terminal APP antibodies (pC-APP), respectively. […] In addition, ApoEp and 6KApoEp colocalized with N-terminal APP in cultured CHO/APPwt cells as determined by immunofluorescence staining with 6H3B5 and pN-APP antibodies (FIG. 20C), respectively, confirming that N-terminal APP physically associates with apoE in cell culture. […]
WB analyses were performed as previously described^43,44. […] For all other proteins detected by WB, 10% tris-SDS gels were used. Densitometry analysis was performed as previously described using a FluorS Multiimager with Quantity One™ software 43. […]

CHO/APPswe cells = assay: Aβ and β-CTF in CHO/APPwt compared with CHO/APPswe cells; format: cell-based, Chinese hamster; conditions: apoE4 0, 5, 10 μg/mL or 6KApoEp 0, 5, 10 μM, 2 h, serum-free medium
Procedure: CHO cells engineered to express human wild-type APP (CHO/APPwt) or Swedish mutant APP (CHO/APPswe) were obtained. These cells were cultured in 96 or 24 well plates at 4×10^4 or 2×10^5 cells/well, respectively, in Dulbecco's modified Eagle's medium (DMEM) with 10% fetal bovine serum, 1 mM sodium pyruvate and 100 U/mL of penicillin/streptomycin (Invitrogen, Thermo Fisher Scientific). In addition, murine N2a cells transfected with APPwt (N2a/APPwt were obtained), SH-SY5Y cells transfected with APPswe and wild-type SH-SY5Y cells (ATCC, Manassas, Va.) were cultured as previously described^42. Primary hN2TM human neurons (Neuromics, Edina, Minn.) were cultured in hN2TM human neuron culture media and primary HCN2 human neurons (ATCC) were cultured in DMEM with 4 mM L-glutamine adjusted to contain 1.5 g/L sodium bicarbonate, 4.5 g/L glucose, fetal bovine serum (10%).

CHO/APPwt cells = assay: APP processing and cell surface protein expression in CHO/APPwt cells (ELISA, WB, biotinylation, flow cytometry, confocal microscopy); format: cell-based, Chinese hamster
Procedure: In addition, full-length APP (f-APP, short and long exp, exposure), α/β-CTF and total APP in cell lysates were analyzed by WB using anti-C-terminal APP750/70 (pC-APP, left panel, FIG. 23C) and anti-N-terminal APP antibody (6E10, right panel, FIG. 23C). Cell lysates were also biotinylated and immunoprecipitated using Neutravidin beads and intracellular proteins obtained by Neutravidin depletion (intra) and cell surface proteins obtained by Neutravidin precipitation (cell surf) were analyzed for f-APP, LDLR and LRP1 by WB using 6E10, anti-LDLR and anti-LRP1 (FIG. 23D). Band density ratios of cell surf or intra to total f-APP was determined by densitometry analysis (FIG. 23E). Cellular membrane associated full-length APP was analyzed by flow cytometry and presented as means±s.d. median FL-1-A (FIG. 23F). […] Asterisk indicates P<0.05 compared with Ctrl as determined by t test.
In addition, some of the cells were biotinylated, cell lysates were immunoprecipitated using Neutravidin beads and cell surface (cell surf) proteins obtained by Neutravidin precipitation, intracellular (intra) proteins obtained by Neutravidin depletion and total proteins were analyzed for full-length APP by WB using pC-APP (pAPP751/770) (FIG. 27B). […]

Chain of N-terminus of APP (P05067 18-189 limits assumed): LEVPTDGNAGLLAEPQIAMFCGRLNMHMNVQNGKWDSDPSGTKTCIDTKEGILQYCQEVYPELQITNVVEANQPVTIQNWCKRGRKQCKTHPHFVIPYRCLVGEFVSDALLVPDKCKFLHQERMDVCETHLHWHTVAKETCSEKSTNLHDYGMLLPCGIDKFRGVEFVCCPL

| Substance | immunoprecipitation and localization with N-terminal APP (N-terminus of APP) | Aβ and β-CTF levels in CHO/APPwt compared with CHO/APPswe cells (CHO/APPswe cells) | Aβ, β-CTF and sAPPα levels (CHO/APPwt cells; 6KApoEp 10 μM, apoE4 10 μg/mL, 2 h) | cell surface protein levels of LDLR or LRP1 (CHO/APPwt cells; absence or presence of β- or γ-secretase inhibitors) |
| --- | --- | --- | --- | --- |
| ApoE3: human recombinant apolipoprotein E3 protein (BioVision) | immunoprecipitated and localized with N-terminal APP in vivo and in vitro | – | – | – |
| ApoE4: human recombinant apolipoprotein E4 protein (BioVision) | immunoprecipitated and localized with N-terminal APP in vivo and in vitro | enhanced Aβ and β-CTF levels much more in CHO/APPwt cells compared with CHO cells overexpressing APP with the Swedish mutation | markedly increased Aβ and β-CTF levels, while reducing sAPPα levels | did not alter cell surface protein levels of LDLR or LRP1 |
